The subject of data set [1] is newborn rat cortical neurons. Briefly: Glutamate-induced excitotoxicity in newborn rat cortical neuron culture, MTT cell viability. The data set is classed as cell-based, Wistar rats. An excerpt: To confirm the predicted biological activity, we adopted a glutamate-induced excitotoxicity in the rat cortical neurons model. This work was based on previous findings that glutamate is a well-known excitatory CNS neurotransmitter, which contributes to normal neural transmission, development, differentiation, and plasticity. However, excessive extracellular glutamate levels cause uncontrolled continuous neuron depolarization, which can lead to neuronal death. Excitotoxicity is associated with several neurodegenerative conditions, including Huntington’s disease, Alzheimer’s disease, amyotrophic lateral sclerosis, Parkinson’s disease, and stroke/traumatic brain injury. To see whether compound 1 has neuroprotective effects, we studied the influence of compound 1 in glutamate-treated cortical neurons isolated from newborn Wistar rats (0–1 day).
The primary culture of newborn rat cortical neurons was obtained as previously described. Briefly, cortical neurons were collected from newborn Wistar rats and inoculated onto culture plates (4 × 10^5 cell cm^–2). […]
The cell viability was measured according to the cell ability of tetrazolium dye reduction. […] The formazan absorption at 492 nm was measured using a Zenyth 1100 (Anthos Labtec Instruments, GmbH, Salzburg, Austria) microplate reader.

In data set [2] the test system is rats with MCAO. Briefly: Hole-board test (HBT) after MCAO. It is filed as in vivo, Wistar rats. As to the method:
(§1) A MCAO animal model was used to characterize the effects of compound 1 on the development and resolution of stroke. At the baseline, we performed the MRI and hole-board test before MCAO surgery. Once animals recovered after the surgery, we stratified them based on their background psycho-emotional status and performed a control MRI to access whether the occlusion was sufficient or not. […] From 24 h to day 7, the neurological status was assessed daily according to the neurological scale (mNSS). By the end of day 7, animals underwent MRI. In addition, MRI was performed on days 14 and 28 (Shceme 3)The hole-board test was repeated on days 10 and 24. The degree of motor function impairment, the deficit of exploratory behavior, and the recovery process were assessed in the beam walking test (BWT), which was performed twice on days 12 and 14. An open field test was carried out on days 16 and 26.
(§2) In the first experimental series, the following test systems were used: HBT (OpenScience, Russia), OFT (OpenScience), and LDT (OpenScience). The design for the second experimental series was as follows. All rat behavioral changes were evaluated during the four weeks after stroke simulation. […] General neurological disorders were assessed using the modified neurological severity score (mNSS). Motor and cognitive impairment were evaluated using the following functional tests: BWT (OpenScience), HBT (OpenScience), and OFT (OpenScience). […] In this test, motor dysfunction in all four limbs was evaluated; specifically, the number of steps, errors, and slides were counted. The overall score was calculated using the following formula: score = errors + 0.5 × slides × 100/total number of steps [47]. […]
(§3) The HBT was performed on postoperative days 10 and 24. In this test, the following parameters were assessed: orientational and motor activity (horizontal activity, arbitrary units: number of crossings; vertical activity, arbitrary units: number of head dips), anxiety level (immobility and grooming time and number of grooming and immobility events), and the number of central sector crossings. […]

The nature of data set [3]: Reported BBB permeability. To be noted: compound 1, no reference given; own data. The text has this:
Table 5 Predicted permeability of ampakines in silico and in the blood–brain barrier (BBB). | column: Literature Report of BBB Permeability

In data set [4] the test system is rats with MCAO. Put plainly: Open field test (OFT) after MCAO. The data set is classed as in vivo, Wistar rats. As to the method:
as §1, §2, §3

For data set [5] the following is noted: cited from earlier work.

Turning to `O=C(CN1CC(c2ccccc2)CC1=O)NCCS(=O)(=O)[O-].[K+]` (centres unmarked) [Compound 1, potassium 2-[2-(2-oxo-4-phenylpyrrolidin-1-yl)acetamido]ethane-1-sulfonate], the “Increase of cell survival rate” value in data set [1] (50 µM compound 1 after exposure to 50 µM glutamate, MTT, maximum protective effect) came out at 37%. Also, the “Neuroprotective effect at higher dose” value in data set [1] (100 μM compound 1) is “decreases”. For the same compound, in the data set on rats with MCAO [2] (day 10), the “Orientational activity (HBT)” value is listed as “escalation”. Besides, in the data set with rats with MCAO [2] (days 10 and 24), the “Freezing time (HBT)” value is recorded as “decreased” and the “Total locomotor activity (HBT)” value is “significantly increased”. Also, the “BBB Permeability (column Literature Report of BBB Permeability)” value in data set [3] is “Low”. The “Locomotor activity (OFT)” value with rats with MCAO [4] is on record as “higher”. In the data set on rats with MCAO [4] (day 16), the “Immobility time (OFT) compared to the saline and piracetam groups” value is given as “lower”; the “Number of crossed areas (OFT)” value is on record as “statistically significant increase”.
As for `NC(=O)CN1CCCC1=O` [Piracetam, reference compound], in data set [5] (animals with ischemic stroke, ref 25 (Paliwal et al. 2018)), the “Increase of BBB permeability in animals with ischemic stroke” value is given as 3.5 fold. Further, the “Literature Report of BBB Permeability” value in data set [5] was “Very good [21, 22]”.

The values are drawn from paper PMC8541353, “A Novel Phenylpyrrolidine Derivative: Synthesis and Effect on Cognitive Functions in Rats with Experimental Ishemic Stroke” (Molecules, 2021).
